ChEMBL document CHEMBL5604063, “ASAP - DENV-2 NS2B-NS3 protease fluorescence dose response” (2024)
Where “and” joins values, the source holds several entries; their conditions need not be identical. Equal entries are not always repeated.

Experiments:
[1] = target: T1, Genome polyprotein (dengue virus type 2, UniProt P29990); format: functional, Thailand/16681/1984
[2] = target: T1, Genome polyprotein; format: functional, Thailand/16681/1984; remark: listed apart in the source

T1 sequence (P29990 1346-1475 limits assumed): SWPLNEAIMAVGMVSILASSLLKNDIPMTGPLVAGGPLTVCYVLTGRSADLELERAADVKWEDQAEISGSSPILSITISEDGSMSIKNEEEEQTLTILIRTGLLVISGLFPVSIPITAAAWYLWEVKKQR
T1 sequence (P29990 1476-2093 limits assumed): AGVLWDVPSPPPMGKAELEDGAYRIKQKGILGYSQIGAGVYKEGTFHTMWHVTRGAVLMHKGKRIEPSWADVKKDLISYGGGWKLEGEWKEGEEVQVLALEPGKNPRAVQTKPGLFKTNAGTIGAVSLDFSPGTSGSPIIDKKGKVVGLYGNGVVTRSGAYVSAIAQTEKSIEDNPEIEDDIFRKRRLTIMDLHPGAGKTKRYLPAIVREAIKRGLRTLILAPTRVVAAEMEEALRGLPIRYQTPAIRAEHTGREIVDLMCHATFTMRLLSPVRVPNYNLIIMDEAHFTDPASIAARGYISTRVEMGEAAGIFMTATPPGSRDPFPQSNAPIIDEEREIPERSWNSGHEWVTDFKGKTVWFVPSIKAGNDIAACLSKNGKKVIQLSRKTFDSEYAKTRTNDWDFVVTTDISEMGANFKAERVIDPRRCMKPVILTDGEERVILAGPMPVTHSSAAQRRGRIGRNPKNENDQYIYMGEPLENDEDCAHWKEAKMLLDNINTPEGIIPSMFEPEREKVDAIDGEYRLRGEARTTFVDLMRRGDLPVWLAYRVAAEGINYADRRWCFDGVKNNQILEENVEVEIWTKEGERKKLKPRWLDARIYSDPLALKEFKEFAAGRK

Row | SMILES | IC50 [1] | IC50 [2] [µM]
1 | Cc1c(C(=O)Nc2cc(C3(C)OCCO3)ccn2)cc(C2CC2)n1C | > 100 µM | > 99.5
2 | O=C(Nc1cc2c(cc1Br)CNC2)c1cc(Cl)cc2[nH]ncc12 | > 100 µM | > 99.5
3 | Cc1c(C(=O)Nc2cccc([C@H]3CCOC3)c2)cc(C2CC2)n1C | > 100 µM | > 99.5
4 | O=C(Nc1ccc2c(c1)CNC2)c1cccc2[nH]c(C(F)(F)F)cc12 | > 100 µM | 91.7
5 | O=C(Nc1cc(-c2cccnc2)ccn1)c1nc(C2CC2)co1 | > 100 µM | > 99.5
6 | O=C(Nc1ccc2c(c1)CNC2)c1cc(Cl)cc2[nH]c(-c3ccnn3C3CC3)nc12 | > 100 µM | 25.2
7 | Cn1cc(C(F)(F)F)nc1C(=O)Nc1cc(-c2cccnc2)ccn1 | > 100 µM | > 99.5
8 | C=CC[C@H]1NCc2cc(N[C@H](C(=O)NC(C)C)c3cccc4[nH]ncc34)ccc21 | > 100 µM | > 99.5
9 | COCCNC(=O)[C@H](Nc1cccc([C@H]2CCOC2)c1)c1cc(Cl)cc2[nH]ncc12 | > 100 µM | > 99.5
10 | O=C(Nc1ccc2c(c1)CNC2)c1cc(Cl)cc2[nH]c(-c3nc4c(s3)CCC4)nc12 | > 100 µM | 16.4
11 | O=C(Nc1ccc2c(c1)CNC2)c1ccc2c(c1)CCC2 | > 100 µM | > 99.5
12 | CC(C)n1cc(C(=O)Nc2cc(-c3cccnc3)ccn2)c2ccccc21 | > 100 µM | > 99.5
13 | O=C(Nc1ccc2c(c1)C(=O)OC2)c1cc(CC2CCNCC2)ccc1F | > 100 µM | > 99.5
14 | Cn1nc(C(=O)Nc2cc(-c3cccnc3)ccn2)cc1C1CC1 | > 100 µM | > 99.5
15 | O=C(Nc1ccc2c(c1)CNC2)c1cc(Cl)cc2[nH]c(-c3ccc(F)cc3O)nc12 | 60.1 µM | 23.8
16 | O=C1OCc2ccc(NC(=O)c3cccc4c3CNC4)cc21 | > 100 µM | > 99.5
17 | CCOC(=O)c1csc([C@H]2CCCN2C(=O)Nc2ccc3c(c2)CNC3)n1 | > 100 µM | > 99.5
18 | O=C1OCc2ccc(NC(=O)[C@H]3CNC4(CCCC4)C3)cc21 | > 100 µM | > 99.5
19 | CNC(=O)[C@H](Nc1ccc2c(c1)CNC2)c1cccc2[nH]c(C(F)(F)F)nc12 | > 100 µM | > 99.5
20 | Cc1c(C(=O)Nc2cc(-c3cccnc3)ccn2)cc(C(C)C)n1C | > 100 µM | > 99.5
21 | O=C(NCC(F)F)[C@H](Nc1ccc2c(c1)CNC2)c1cc(F)cc2[nH]ccc12 | > 100 µM | > 99.5
22 | O=C(Nc1ccc2c(c1)CNC2)c1cc(Cl)cc2[nH]c(-c3c[nH]c(=O)c(Br)c3)nc12 | 13.7 µM | 12.5

Row | SMILES | IC50 [1] | IC50 [2] [µM]
23 | O=C(Nc1ccc2c(c1)CNC2)c1cc(Cl)cc2[nH]c(-c3cn[nH]c3)cc12 | > 100 µM | > 99.5
24 | Cc1c(C(=O)Nc2cc(-c3cccnc3)ccn2)cc(C2CCCCC2)n1C | > 100 µM | > 99.5
25 | c1cc([C@@H]2C[C@H]2c2ccc3c(c2)CNC3)c2cn[nH]c2c1 | > 100 µM | > 99.5
26 | Cc1c(C(=O)Nc2cc(C3CCOCC3)ccc2F)cc(C2CC2)n1C | > 100 µM | > 99.5
27 | C[C@](N)(C(=O)Nc1ccc2c(c1)C(=O)OC2)c1cccs1 | > 100 µM | > 99.5
28 | O=C1C[C@H]2[C@H](CCCN2C(=O)Nc2ccc3c(c2)CNC3)N1 | 75.5 µM and 46.1 µM and > 100 µM (2×) | > 99.5
29 | O=C(Nc1ccc2c(c1)S(=O)(=O)NC2)c1cc(Cl)cc2[nH]ncc12 | > 100 µM | > 99.5
30 | O=C(Nc1cc(-c2cccnc2)ccn1)c1cnn2c1CCC2 | > 100 µM | > 99.5
31 | O=C(NCCC1CC1)[C@H](Nc1ccc2c(c1)CNC2)c1cc(Cl)cc(C2CC2)c1 | > 100 µM | > 99.5
32 | Cc1c(C(=O)NCc2ccnc(OC3CCOCC3)c2)cc(C2CC2)n1C | > 100 µM | > 99.5
33 | O=C1Cc2c(C(=O)Nc3ccc4c(c3)CNC4)ccnc2N1 | > 100 µM | > 99.5
34 | Cc1c(C(=O)NCc2cccc(C3COC3)c2)cc(C2CC2)n1C | > 100 µM | > 99.5
35 | O=C(Nc1cc([C@H]2CCOC2)ccn1)c1cc(Cl)cc2c1CCC2 | > 100 µM | > 99.5
36 | O=C(Nc1ccc2c(c1)CNC2)c1cc(Cl)cc2[nH]c(CN3CCCC3=O)cc12 | > 100 µM | > 99.5
37 | O=C(Nc1ccc2c(c1)C(=O)OC2)c1ccc2c(c1)CNC2 | > 100 µM | > 99.5
38 | O=C(Nc1ccc2c(c1)CS(=O)(=O)C2)c1cc(Cl)cc2[nH]ncc12 | > 100 µM | > 99.5
39 | COc1ccc(-c2nc3c(C(=O)Nc4ccc5c(c4)CNC5)cc(Cl)cc3[nH]2)cc1 | 39.5 µM and 40.3 µM | 21.5
40 | Cc1c(C(=O)Nc2cc(SC3COC3)ccn2)cc(C2CC2)n1C | > 100 µM | > 99.5
41 | O=C(Nc1ccc2c(c1)C(=O)OC2)c1cccc(CC2CNC2)c1 | > 100 µM | > 99.5
42 | O=C(Nc1cc(-c2cccnc2)ccn1)c1csc(C2CC2)n1 | > 100 µM | > 99.5
43 | O=C(Nc1cc(Br)c2c(c1)CNC2)c1cc(F)cc2[nH]ncc12 | 30.6 µM and 22.5 µM | 40.4
